Converted amounts (≈) assume the structure as drawn.
What was measured:
Francisella tularensis = test: Antimicrobial activity against Francisella tularensis BEI/ATCC UTAH 112 measured after overnight incubation; type: functional
Bacillus anthracis [1] = test: Antimicrobial activity against Bacillus anthracis deltaANR measured after overnight incubation; type: functional
Yersinia pestis = test: Antimicrobial activity against Yersinia pestis BEI/ATCC A1122 measured after overnight incubation; type: functional
Bacillus anthracis [2] = test: Inhibition of recombinant Bacillus anthracis PurE assessed as inhibition of 4-carboxy-amino-imidazole ribonucleotide to N5-carboxy-amino-imidazole ribonucleotide conversion preincubated for 1.5 mins at 10 uM by mass spectrometry analysis
Bacillus anthracis [3] = test: Inhibition of recombinant Bacillus anthracis PurE assessed as change in melting temperature at 100 uM after 10 to 30 mins by high-throughput thermal shift screening
[4] = Binding affinity to Gallus gallus PurE
[5] = Binding affinity to Escherichia coli PurE
Staphylococcus aureus [6] = test: Antimicrobial activity against methicillin-sensitive Staphylococcus aureus ATCC 29213 measured after overnight incubation; type: functional
Staphylococcus aureus [7] = test: Antimicrobial activity against methicillin-resistant Staphylococcus aureus ATCC 43300 measured after overnight incubation; type: functional
Bacillus anthracis [8] = test: Bactericidal activity against Bacillus anthracis deltaANR measured after 72 hrs; type: functional
[9] = Ratio of MIC for Yersinia pestis BEI/ATCC A1122 to MIC for Bacillus anthracis deltaANR; type: functional
Bacillus anthracis [10] = test: Ratio of MBC to MIC for against Bacillus anthracis deltaANR measured after 72 hrs; type: functional
Escherichia coli = test: Antimicrobial activity against TolC-deficient Escherichia coli BW25113 measured after overnight incubation; type: functional
[11] = Ratio of MIC for Francisella tularensis BEI/ATCC UTAH 112 to MIC for Bacillus anthracis deltaANR; type: functional

| SMILES | MIC (Francisella tularensis) [µg/mL] | MIC (Bacillus anthracis [1]) [µg/mL] | MIC (Yersinia pestis) [µg/mL] | inhibition (Bacillus anthracis [2]) [%] | ΔTm (Bacillus anthracis [3]) [°C] | Ki [4] [nM] | Ki [5] [nM] | MIC (Staphylococcus aureus [6]) [µg/mL] | MIC (Staphylococcus aureus [7]) [µg/mL] | MBC (Bacillus anthracis [8]) [µg/mL] | Ratio [9] | MBC/MIC ratio (Bacillus anthracis [10]) [µg/mL] | MIC (Escherichia coli) [µg/mL] | Ratio [11] |
| --- | --- | --- | --- | --- | --- | --- | --- | --- | --- | --- | --- | --- | --- | --- |
| O=C(Nc1cccc(C(F)(F)F)c1)N1CCN(c2ccc3nncn3n2)CC1 | > 12.5 | > 12.5 | > 12.5 | 14 | 3.1 | – | – | – | – | – | – | – | – | – |
| CCCCC(CC)CNc1nc2c(c(=O)[nH]c(=O)n2C)n1CC(O)COc1ccc(C)c(C)c1 (stereo unspecified) | > 12.5 | – | – | 7 | 1.8 | – | – | – | – | – | – | – | – | – |
| Nc1c([N+](=O)[O-])ncn1[C@@H]1O[C@H](COP(=O)(O)O)[C@@H](O)[C@H]1O | – | – | – | 24 | 5.6 | 0.34 | 500 | – | – | – | – | – | – | – |
| O=C(O)c1cn(C2CC2)c2cc(N3CCNCC3)c(F)cc2c1=O [CIPROFLOXACIN] | 0.03 (≈ 0.0905 µM) | 0.11 (≈ 0.332 µM) | 0.04 (≈ 0.121 µM) | – | – | – | – | 0.35 (≈ 1.06 µM) | 0.34 (≈ 1.03 µM) | – | – | – | – | – |
| COc1cccc(-c2nc(Cn3nnc(C(=O)NCc4ccc(Cl)cc4)c3N)c(C)o2)c1OC | > 12.5 | > 12.5 | – | 6 | 1.2 | – | – | – | – | – | – | – | – | – |
| COc1ccc(Cl)c(C(=O)Nc2nnc(-c3ccc(Br)cc3)o2)c1 | 1.2 (≈ 2.94 µM) | 0.78 (≈ 1.91 µM) | 3.1 (≈ 7.59 µM) | 15 | 1.4 | – | – | 1.56 (≈ 3.82 µM) | 3.13 (≈ 7.66 µM) | > 12.5 | 10 | > 4 | 0.39 (≈ 0.954 µM) | 10 |
| COc1cccc(C(=O)Nc2ccc(-c3cn4ccsc4n3)cc2)c1OC | > 12.5 | > 12.5 | > 12.5 | 17 | 3 | – | – | – | – | – | – | – | – | – |
| NS(=O)(=O)c1ccc(NC(=O)CSc2nnc(-c3ccccc3)o2)cc1 | – | > 12.5 | – | 12 | 1.5 | – | – | – | – | – | – | – | – | – |
| Cc1ccc(C)c(-c2nnc(NC(=O)c3cc(Cl)sc3Cl)o2)c1 | 1.6 (≈ 4.34 µM) | 0.05 (≈ 0.136 µM) | 3.1 (≈ 8.42 µM) | 20 | 1.1 | – | – | 0.78 (≈ 2.12 µM) | 1.95 (≈ 5.3 µM) | > 12.5 | 10 | > 4 | 0.07 (≈ 0.19 µM) | 10 |
| Cc1sc2ccsc2[n+]1CC(=O)O.[Br-] | > 12.5 | > 12.5 | > 12.5 | 17 | 4.4 | – | – | – | – | – | – | – | – | – |
| O=C(NCc1c(-c2ccc(Cl)cc2)nc2n1CCS2)c1cccs1 | > 12.5 | > 12.5 | > 12.5 | 11 | 4.7 | – | – | – | – | – | – | – | – | – |
| Cc1ccc(C)c(-c2nnc(NC(=O)c3cccc(Cl)c3)o2)c1 | 6.3 (≈ 19.2 µM) | 0.1 (≈ 0.305 µM) | > 12.5 | 19 | 2.4 | – | – | 0.2 (≈ 0.61 µM) | > 12.5 | > 12.5 | 10 | > 4 | 0.02 (≈ 0.061 µM) | 10 |
| O=C(Cc1ccc(NC(=O)c2ccc(F)cc2Cl)cc1)NCc1cccs1 | > 12.5 | > 12.5 | > 12.5 | 20 | 1.8 | – | – | – | – | – | – | – | – | – |
| Cc1c(C(=O)Nc2nnc(-c3cc(Cl)ccc3Cl)o2)c(-c2ccccc2)nc2ccccc12 | 3.1 (≈ 6.52 µM) | 0.1 (≈ 0.21 µM) | > 12.5 | 19 | 7.9 | – | – | > 12.5 | 6.25 (≈ 13.1 µM) | > 12.5 | 10 | > 4 | 0.39 (≈ 0.82 µM) | 10 |
| CC(=O)NC[C@H]1CN(c2ccc(N3CCOCC3)c(F)c2)C(=O)O1 [LINEZOLID] | 32 (≈ 94.9 µM) | – | – | – | – | – | – | – | – | – | – | – | – | – |
| O=C(Oc1ccccc1)Oc1ccc(N(C(=O)Oc2ccccc2)S(=O)(=O)c2ccc3ccccc3c2)cc1Br | – | > 12.5 | – | 28 | 5.2 | – | – | – | – | – | – | – | – | – |
